Data on one compound can be found in patent publication US20230416672A1, “Rhodococcus qingshengii bacterial strain that degrades imazethapyr and stimulates crop growth” (priority 2020, published 2023).

The test system of experiment [1] is soft wheat (Triticum aestivum L.) variety Favorite. Put plainly: Growth of soft wheat in soil artificially contaminated with imazethapyr (Example 2). The experiment is classed as in vivo. The following applies: imazethapyr 10 mg/kg soil (Viaduk VK), without bacterization, 25 days. On the procedure: (§1) The soil in the experiment was artificially polluted with the herbicide preparation “Viaduk VK” (Active substance: imazethapyr, 100 g/L), introducing the drug with water for irrigation at a dosage, according to the instructions, to a final concentration of imazethapyr 10 mg/kg of soil. The soil was moistened to 50% of the total moisture capacity. Seeds of soft wheat (Triticum aestivum L.) varieties “Favorite” 20 pcs. were sown in 1-liter pots containing 1 kg of soil. […]
(§2) The experiment was carried out under controlled conditions: at a temperature of 24/20° C., a light regime of 14/10 h (illumination—8000 lux), day/night, respectively, maintaining soil moisture at a level of 50% of the total moisture capacity by irrigation with settled tap water, the need for which was determined by weighing vessels. […] They were dried with filter paper, the length of roots and shoots was measured, they were separated and dried to constant weight at 65° C. […] The content of imazethapyr in soil was determined as described previously (Assalin M. R., Queiroz S. C. N., Ferracini V. L., Oliveira T., Vilhena E., Mattos M. L. T. A method for determination of imazapic and imazethapyr residues in soil using an ultrasonic assisted extraction and LC-MS/MS//Bull. Environ. Contam. Toxicol.—2014.—Vol. 93.—P. 360-364) using HPLC. […]

The nature of experiment [2]: Imazethapyr content in soil in laboratory experiment (Example 2, HPLC). The following applies: end of experiment (47 days), original contaminated soil 6.17. As to the method:
as §1, §2

`CCc1cnc(C2=NC(C)(C(C)C)C(=O)N2)c(C(=O)O)c1` (stereo not drawn) [imazethapyr]: the “growth of wheat plants in freshly contaminated soil” value in experiment [1] was “strong inhibition”. In addition, the Imazethapyr content was found to be 5.90 mg/kg in experiment [2] (soil with wheat) and 5.87 mg/kg in experiment [2] (soil without plants).
